Structures are written as SMILES. Values joined by “and” are separate entries in the source; they are usually repeats but may differ in a detail not shown here. Equal values may be shown once. Toxic doses and inconclusive results are not listed.

The subject of this experiment is L1210 leukemia ip in BDF1 mice, survival T/C. In words: NCI In Vivo Anticancer Drug Screen. Data for tumor model L1210 Leukemia (intraperitoneal) in B6D2F1 (BDF1) mice. To be noted: endpoint: mean survival time, higher = longer survival. Put shortly: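 Ratio derived from survival: compound-dosed mice over vehicle-dosed mice, all bearing a transplantable tumor.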

Where [1] appears, read: dose: 100.0 mg/kg/injection, schedule: Q01DX009 (ip), vehicle: Klucel (hydroxypropylcellulose) (HPC).
Where [2] appears, read: dose: 100.0 mg/kg/injection, schedule: Q04DX003 (ip), vehicle: Klucel (hydroxypropylcellulose) (HPC).
Setting [3] is: dose: 200.0 mg/kg/injection, schedule: Q01DX009 (ip), vehicle: Klucel (hydroxypropylcellulose) (HPC).
Setting [4] is: dose: 200.0 mg/kg/injection, schedule: Q04DX003 (ip), vehicle: Klucel (hydroxypropylcellulose) (HPC).
Setting [5] is: dose: 400.0 mg/kg/injection, schedule: Q01DX009 (ip), vehicle: Klucel (hydroxypropylcellulose) (HPC).
[6] abbreviates: dose: 400.0 mg/kg/injection, schedule: Q04DX003 (ip), vehicle: Klucel (hydroxypropylcellulose) (HPC).
[7] abbreviates: dose: 50.0 mg/kg/injection, schedule: Q01DX009 (ip), vehicle: saline with Tween-80.
Where [8] appears, read: dose: 100.0 mg/kg/injection, schedule: Q01DX009 (ip), vehicle: saline with Tween-80.
Setting [9] is: dose: 100.0 mg/kg/injection, schedule: Q04DX002 (ip), vehicle: saline with Tween-80.
[10] abbreviates: dose: 200.0 mg/kg/injection, schedule: Q01DX009 (ip), vehicle: saline with Tween-80.
Where [11] appears, read: dose: 200.0 mg/kg/injection, schedule: Q04DX002 (ip), vehicle: saline with Tween-80.
Where [12] appears, read: dose: 100.0 mg/kg/injection, schedule: Q04DX003 (ip), vehicle: saline with Tween-80.
Setting [13] is: dose: 200.0 mg/kg/injection, schedule: Q04DX003 (ip), vehicle: saline with Tween-80.
Where [14] appears, read: dose: 400.0 mg/kg/injection, schedule: Q04DX002 (ip), vehicle: saline with Tween-80.

`Nc1ccccc1SC1CC(=O)N(c2cccc(Cl)c2)C1=O` (stereo unspecified): the T/C is 91 % of control under setting [1]; 94 % of control under setting [2]; 92 % of control under setting [3]; 95 % of control under setting [4]; 91 % of control under setting [5]; 94 % of control under setting [6].
On to `Cc1c(Cl)cccc1NC(=O)c1ccc(Cl)cc1Cl`, for which the T/C reads like this: under setting [1], 92 % of control; under setting [2], 92 % of control; under setting [3], 94 % of control; under setting [4], 95 % of control; under setting [5], 91 % of control; under setting [6], 93 % of control.
Take `C[n+]1cccc2cccc(N)c21`: the T/C (dose: 10.0 mg/kg/injection, schedule: Q01DX001 (ip), vehicle: other) is 105 % of control; the T/C (dose: 20.0 mg/kg/injection, schedule: Q01DX001 (ip), vehicle: other) was 115 % of control; the T/C (dose: 40.0 mg/kg/injection, schedule: Q01DX001 (ip), vehicle: other) was 105 % of control.
For `O=C1Nc2ccc(Br)cc2C1(O)Cc1cccc([N+](=O)[O-])c1` (stereo unspecified), the T/C runs as follows: under setting [7], 90 % of control; under setting [8], 93 % of control; under setting [9], 91 % of control; under setting [10], 90 % of control; under setting [11], 91 % of control.
Turning to `CCOC(=O)C(C(=O)OCC)C1c2ccccc2NC(=O)c2ccccc21` (stereo unspecified), the T/C is, setting by setting: under setting [1], 100 % of control; under setting [2], 90 % of control; under setting [3], 100 % of control; under setting [4], 90 % of control; under setting [5], 91 % of control; under setting [6], 88 % of control.
For `NNC(=O)c1c(C(N)=O)n[nH]c1C1OC(COCc2ccccc2)C(OCc2ccccc2)C1OCc1ccccc1` (stereo unspecified), the T/C (dose: 100.0 mg/kg/injection, schedule: Q01DX005 (ip), vehicle: saline) was 97 % of control and 93 % of control; the T/C (dose: 200.0 mg/kg/injection, schedule: Q01DX005 (ip), vehicle: saline) was 100 % of control and 101 % of control.
Regarding `O=Cc1occ(-c2ccccc2)c1-c1ccccc1`, the T/C under setting [2] is 94 % of control, the T/C under setting [4] is 97 % of control and the T/C under setting [6] is 98 % of control.
Consider `O=S(=O)(Oc1ccc(Br)cc1)C1CC1c1ccccc1` (stereo unspecified), for which the T/C was 106 % of control (dose: 100.0 mg/kg/injection, schedule: Q01DX001 (ip), vehicle: saline); 98 % of control (dose: 200.0 mg/kg/injection, schedule: Q01DX001 (ip), vehicle: saline); 103 % of control (dose: 400.0 mg/kg/injection, schedule: Q01DX001 (ip), vehicle: saline).
With `c1ccc(CCNCc2ccc(CNCCc3ccccc3)cc2)cc1`, the T/C is, setting by setting: under setting [12], 93 % of control; under setting [13], 90 % of control.
`COc1cc([N+](=O)[O-])ccc1NC(=O)Nc1ccccc1F`: the T/C under setting [1] is 98 % of control, the T/C under setting [3] is 93 % of control and the T/C under setting [5] is 89 % of control.
In the case of `COc1ccccc1C(C(C)C)C(C)C`, the T/C runs as follows: under setting [12], 105 % of control; under setting [13], 101 % of control.
Take `O=C(NNc1ccccc1)C(O)C(O)C(O)C(O)C(O)CO` (stereo unspecified): the T/C by setting is: (dose: 100.0 mg/kg/injection, schedule: Q04DX002 (ip), vehicle: Klucel (hydroxypropylcellulose) (HPC)) 98 % of control; (dose: 200.0 mg/kg/injection, schedule: Q04DX002 (ip), vehicle: Klucel (hydroxypropylcellulose) (HPC)) 95 % of control; (dose: 400.0 mg/kg/injection, schedule: Q04DX002 (ip), vehicle: Klucel (hydroxypropylcellulose) (HPC)) 91 % of control.
With `CCCCC(CCC)CCC`, the T/C was 103 % of control under setting [9], 94 % of control under setting [11] and 106 % of control under setting [14].
With `Cc1ccc(SS(=O)(=O)c2ccc(C)cc2)cc1`, the T/C runs as follows: (dose: 100.0 mg/kg/injection, schedule: Q01DX001 (ip), vehicle: Klucel (hydroxypropylcellulose) (HPC)) 86 % of control; (dose: 100.0 mg/kg/injection, schedule: Q01DX009 (ip), vehicle: saline sonified) 116 % of control; under setting [2], 114 % of control; (dose: 200.0 mg/kg/injection, schedule: Q01DX001 (ip), vehicle: Klucel (hydroxypropylcellulose) (HPC)) 86 % of control; (dose: 200.0 mg/kg/injection, schedule: Q01DX009 (ip), vehicle: saline sonified) 102 % of control; under setting [4], 101 % of control. The T/C by setting is: (dose: 400.0 mg/kg/injection, schedule: Q01DX009 (ip), vehicle: saline sonified) 107 % of control; under setting [6], 106 % of control.
For the compound `COC(=O)c1ccc(OC(=O)Nc2cccc(Cl)c2C)cc1`, the T/C under setting [8] is 98 % of control and 100 % of control; the T/C under setting [9] was 93 % of control and 91 % of control; the T/C under setting [10] was 95 % of control and 91 % of control; the T/C under setting [11] was 96 % of control and 87 % of control; the T/C under setting [14] was 96 % of control and 97 % of control.
Turning to `O=S(=O)(O)c1ccccc1.O=S(=O)(O)c1ccccc1.[NH-]C1CCCCC1[NH-].[Pt+2]`, the T/C by setting is: (dose: 0.5 mg/kg/injection, schedule: Q04DX003 (ip), vehicle: dextrose) 112 % of control; (dose: 2.0 mg/kg/injection, schedule: Q04DX003 (ip), vehicle: dextrose) 154 % of control; (dose: 4.0 mg/kg/injection, schedule: Q04DX003 (ip), vehicle: dextrose) 173 % of control; (dose: 6.0 mg/kg/injection, schedule: Q04DX003 (ip), vehicle: dextrose) 182 % of control.
`CSc1nc(N)c2n[nH]nc2n1`: the T/C reads like this: under setting [12], 103 % of control; under setting [13], 95 % of control; (dose: 400.0 mg/kg/injection, schedule: Q04DX003 (ip), vehicle: saline with Tween-80) 95 % of control.
Regarding `CC1NC(=O)OC1(C)C(C)(C)C` (stereo unspecified), the T/C was 97 % of control (dose: 5.0 mg/kg/injection, schedule: Q04DX003 (ip), vehicle: saline with Tween-80); 100 % of control (dose: 10.0 mg/kg/injection, schedule: Q04DX003 (ip), vehicle: saline with Tween-80); 96 % of control (dose: 20.0 mg/kg/injection, schedule: Q04DX003 (ip), vehicle: saline with Tween-80).
For `CC[n+]1ccc(Nc2ccc(/C=C/c3ccc4cc(Nc5cc[n+](CC)cc5)ccc4[n+]3CC)cc2)cc1`, the T/C was 112 % of control and 119 % of control and 120 % of control (dose: 2.5 mg/kg/injection, schedule: Q01DX009 (ip), vehicle: saline); 150 % of control (dose: 5.0 mg/kg/injection, schedule: Q01DX009 (ip), vehicle: saline); 182 % of control and 209 % of control (dose: 10.0 mg/kg/injection, schedule: Q01DX009 (ip), vehicle: saline); 100 % of control (dose: 12.5 mg/kg/injection, schedule: Q01DX001 (ip), vehicle: saline); 100 % of control (dose: 25.0 mg/kg/injection, schedule: Q01DX001 (ip), vehicle: saline); 112 % of control (dose: 50.0 mg/kg/injection, schedule: Q01DX001 (ip), vehicle: saline).
`COc1ccc(OC)c(NC(=O)SCCSC(=O)Nc2cc(OC)ccc2OC)c1`: the T/C runs as follows: under setting [1], 92 % of control; under setting [3], 91 % of control; under setting [5], 92 % of control.
With `CCCCOB1OC(c2ccccc2)(c2ccccc2)c2ccccc2C(c2ccccc2)(c2ccccc2)O1`, the T/C is 91 % of control (dose: 100.0 mg/kg/injection, schedule: Q01DX001 (ip), vehicle: carboxymethylcellulose (CMC)); 91 % of control (dose: 200.0 mg/kg/injection, schedule: Q01DX001 (ip), vehicle: carboxymethylcellulose (CMC)); 98 % of control (dose: 400.0 mg/kg/injection, schedule: Q01DX001 (ip), vehicle: carboxymethylcellulose (CMC)).
With `CC(=O)OC1/C=C/C(C)=C/CC(O)/C=C/C(C)=C/C(NC(=O)C(C)=O)C2(C)C(=O)OC(C1)C(C)C2=O` (stereo unspecified), the T/C runs as follows: (dose: 25.0 mg/kg/injection, schedule: Q01DX001 (ip), vehicle: saline with Tween-80) 102 % of control; (dose: 25.0 mg/kg/injection, schedule: Q01DX009 (ip), vehicle: saline with Tween-80) 101 % of control; (dose: 50.0 mg/kg/injection, schedule: Q01DX001 (ip), vehicle: saline with Tween-80) 94 % of control; under setting [7], 104 % of control; (dose: 100.0 mg/kg/injection, schedule: Q01DX001 (ip), vehicle: saline with Tween-80) 97 % of control; under setting [8], 103 % of control.
As for `CC(=O)Oc1c(Cl)cc(Cl)cc1Cl`, the T/C reads like this: under setting [8], 107 % of control; under setting [10], 100 % of control; (dose: 400.0 mg/kg/injection, schedule: Q01DX009 (ip), vehicle: saline with Tween-80) 100 % of control.
